Data on 13 molecules can be found in PubChem BioAssay (NCI).

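All cell lines were grown in 96-well plates and treated with compound for 48 hours. Here, GI50 denotes the concentration required for 50% inhibition of growth. TGI denotes the concentration required for complete inhibition of growth.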

Holding throughout (assay): inhibition of tumour cell growth, NCI panel, 48 h
In test [1] the test system is HCT-15 colon.
In test [2] the test system is TK-10 renal.
For test [3], the system named is SR leukemia.
The test system of test [4] is HOP-62 NSCLC.
In test [5] the test system is SF-539 CNS.
The test system of test [6] is UACC-62 melanoma.
Test [7] deals with NCI-H226 lung.
Test [8] relates to NCI-H522 lung.
The subject of test [9] is K-562 leukemia.
Test [10] relates to MALME-3M melanoma.

In the case of `O=S(=O)(Oc1ccc2oc3ccccc3c2c1-c1c(OS(=O)(=O)C(F)(F)F)ccc2oc3ccccc3c12)C(F)(F)F`, the TGI in test [1], in test [2], in test [3], in test [4], in test [5] and in test [6] was greater than 100 µM throughout. Also, the TGI in test [7], in test [8] and in test [9] was greater than 100 µM throughout.
Take `FC(F)(F)c1ccc(-c2nc(-c3nc4cc(Cl)c(Cl)cc4[nH]3)c3ccccn23)cc1`: the GI50 is 30.5 µM in test [1]; 3.56 µM in test [10]; 8.15 µM in test [2]; greater than 100 µM in test [3]; 3.04 µM in test [4]; 15.6 µM in [6]. Besides, the GI50 in test [8] was 10.6 µM; in test [9], greater than 100 µM. For the same molecule, the TGI in test [1] was greater than 100 µM; in [10], greater than 100 µM; in test [2], greater than 100 µM; in test [3], greater than 100 µM; in [4], 16.3 µM; in test [6], greater than 100 µM. The TGI in [8] and in test [9] was greater than 100 µM each time.
With `CN(C)CC(/C(Cc1ccccc1)=N\NC(=O)C[n+]1ccccc1)c1ccccc1` (configuration not stated), the TGI in test [1], in test [10], in [2], in [3], in test [4] and in test [5] was greater than 100 µM each time. The TGI in test [6], in test [7], in test [8] and in test [9] was greater than 100 µM throughout.
With `CCCCNC1CCC2(SCCS2)c2[nH]c3ccccc3c21` (configuration not stated), the TGI in test [10] is 33.8 µM; in test [2], 45.1 µM; in test [3], 39.6 µM; in [4], greater than 100 µM; in [5] it was 31.6 µM; in [6], greater than 83.8 µM. The TGI in [7] is greater than 73.7 µM; in test [8], 23 µM; in test [9] it was 55.1 µM.
Take `OCC1OC(c2scc3c(=S)nc[nH]c23)C(O)C1O` (configuration not stated): the TGI is greater than 95.6 µM in [1]; greater than 72.9 µM in [10]; greater than 100 µM in [2]; greater than 100 µM in [3]; greater than 100 µM in test [4]; 57.6 µM in test [5]. Besides, the TGI was 45.6 µM in test [6], 85.4 µM in [7], 82.4 µM in [8] and greater than 100 µM in [9].
For `CC[C@@]1(O)C(=O)OCc2c1cc1n(c2=O)Cc2c-1nc1ccccc1c2/C=N\NC(=O)C(N)CC(C)C` (some centres not stated), the TGI in test [1] was greater than 36.2 µM; in [10] it was 7.31 µM; in [2] it was greater than 100 µM; in test [3], less than 0.0109 µM; in test [4], 0.382 µM; in test [6], 0.0748 µM. Also, the TGI is 0.975 µM in test [7], 1.6 µM in test [8] and greater than 100 µM in test [9].
On to `C1=C(c2ccccc2)CN(c2ccccc2)OC1`, for which the TGI in test [1], in test [10], in test [2], in test [3], in test [4] and in test [5] was greater than 100 µM in each case. In addition, the TGI in [6], in test [7], in [8] and in [9] was greater than 100 µM in each case.
`CCOc1ccc2nc(NC(=O)C(=O)C(C(=O)c3ccccc3-c3ccccc3)C3OC(=O)c4ccccc43)sc2c1` (configuration not stated): the TGI in [1] was greater than 62.4 µM; in test [10], 34.8 µM; in test [2], 41.9 µM; in test [3] it was 43 µM; in test [4], 99.3 µM; in [5], 36.7 µM. For the same molecule, the TGI is 34.8 µM in test [6], 21.5 µM in test [7], 32 µM in test [8] and greater than 67 µM in [9].
Consider `Cc1ccc(S(=O)(=O)N/N=C/c2oc(-c3cccc([N+](=O)[O-])c3)c(-c3cccc([N+](=O)[O-])c3)c2[N+](=O)[O-])cc1`, for which the TGI was greater than 100 µM in test [1]; greater than 100 µM in [10]; greater than 100 µM in test [2]; 45.8 µM in test [3]; greater than 100 µM in test [5]; 49.3 µM in [6]. Also, the TGI was greater than 100 µM in test [7], 28.4 µM in test [8] and 69.9 µM in [9].
In the case of `CC(=O)OCC1OC(Nc2[nH]c(=O)n(C)c(=O)c2-c2csc(N)n2)C(OC(C)=O)C(OC(C)=O)C1OC(C)=O` (configuration not stated), the TGI in test [1], in test [10], in test [2], in test [3], in [4] and in test [5] was greater than 100 µM each time. Also, the TGI in test [6], in test [7], in test [8] and in test [9] was greater than 100 µM in each case.
For `OCCOc1ccc(-c2cc(-c3ccccn3)nc(-c3ccccn3)c2)cc1`, the TGI was greater than 40.6 µM in test [1]; 17.5 µM in test [10]; greater than 100 µM in [2]; 11.7 µM in [3]; greater than 18.9 µM in [4]; 2.26 µM in test [5]. Also, the TGI in test [6] worked out at 2.66 µM; in test [7], 4.55 µM; in test [8], 14.1 µM; in test [9], 11.4 µM.
`O=c1c2ccccc2oc2nc3n(c(=O)c12)CCCS3`: the TGI in [1], in [10], in test [2], in test [3], in test [4] and in [5] was greater than 100 µM throughout. The TGI in test [6], in test [7], in test [8] and in test [9] was greater than 100 µM in each case.
On to `CCN(CC)CCNC(=O)c1ccccc1NC(=O)C(=O)Nc1ccccc1C(=O)NCCN(CC)CC`, for which the TGI is greater than 100 µM in test [1]; 37.7 µM in test [10]; greater than 100 µM in test [2]; 47.6 µM in [3]; greater than 100 µM in [4]; 62.2 µM in test [5]. The TGI is greater than 100 µM in [6], greater than 100 µM in [7], greater than 100 µM in test [8] and 42.1 µM in [9].
